Source: patent publication US20030095953A1, “METHODS OF REVERSING DRUG RESISTANCE IN CANCER CELLS” (priority 1999, published 2003)
Where a name gives a salt, the structure may show the parent alone. Read-outs that look alike come from different tables or passages of the source.

Assays:
Type in all cases: cell-based, human
MCF-7-AdrR/asGCS cells [1] = experiment: Cytotoxicity assay in MCF-7-AdrR/asGCS cells; conditions: 72 hr exposure; for EC50: Homo sapiens, MCF-7-AdrR/asGCS cells, read-out: EC50 (amount of drug provoking 50% cell death)
Description: (§1) Cytotoxicity Assay. Assays were performed as previously described (Liu, Y. Y., et al., (1999) J. Biol. Chem. 274, 1140-1146; Lavie, Y. et al., (1997) J. Biol. Chem. 272, 1682-1687). Briefly, cells were seeded in 96-well plates (2,000 cells/well), in 0.1 ml RPMI-1640 medium containing 10% FBS, and cultured at 37° C. for 24 hr before addition of drug. Drugs were added in FBS-free medium (0.1 ml), and cells were cultured at 37° C. for the indicated periods. Drug cytotoxicity was determined using the Promega 96 Aqueous cell proliferation assay kit (Promega, Madison, Wis.). Absorbance at 490 nm was recorded using a Microplate Fluorescent Reader, model FL600 (Bio-Tek, Winooski, Vt.).

MCF-7-AdrR cells [2] = experiment: Cytotoxicity assay in MCF-7-AdrR cells; conditions: 72 hr exposure, read-out: EC50 (amount of drug provoking 50% cell death)
Description: as §1

caspase-3 [3] = experiment: Caspase-3 assay (DEVD-AFC cleavage) in MCF-7-AdrR/asGCS cells; conditions: for increase of caspase-3 activity over control: MCF-7-AdrR/asGCS cells, 10 μM; for caspase-3 activity in GCS antisense-transfected cells vs parental cells: adriamycin 10 μM
Description: (§2) Caspase-3 Assay. Caspase-3 activity was assayed by DEVD-AFC cleavage, using the ApoAlert Caspase-3 assay kit (Clontech, Palo Alto, Calif.). The assay was performed as previously described (Liu, Y. Y., et al., (1999) Exp. Cell Res. 252, 464-470). Cells were seeded in 100-mm dishes (500,000 cells/dish) in 10% FBS RPMI-1640 medium. After 24 hr, cells were shifted to 5% FBS RPMI-1640 medium without or with adriamycin, and grown for 24 and 48 hr. Following harvest, cells ([…]) were lysed on ice for 10 min with 50 μl of lysis buffer, and cell debris was removed by centrifugation at 4° C., 10,000×g, for 5 min. The soluble fraction was incubated with 50 μM conjugated substrate DEVD-AFC in a 100 μl reaction volume at 37° C., for 60 min. The free AFC fluoresce was measured at λexcitation 400 nm and λemission 505 nm using a FL600 Microplate Fluorescence Reader. The caspase-3 inhibitor, acetyl-Asp-Glu-Val-Asp-aldehyde was used to exclude nonspecific background in the enzymatic reaction.

caspase-3 [4] = experiment: Caspase-3 assay (DEVD-AFC cleavage) in MCF-7-AdrR cells; conditions: 10 μM, 48 hr
Description: as §2

MCF-7-AdrR cells [5] = experiment: Analysis of ceramide in MCF-7-AdrR cells; conditions: 48 hr
Description: (§3) Analysis of Ceramide. Analysis was performed as previously described (Liu, Y. Y.et al., (1999) J. Biol. Chem. 274, 1140-1146, Lavie, Y., et al., (1996) J. Biol. Chem. 271, 19530-19536). Cells were seeded in 6-well plates (60,000 cells/well) in 10% FBS RPMI-1640 medium. After 24 hr, cells were shifted to 5% FBS medium with or without adriamycin, and grown for the indicated times. Cellular lipids were radiolabeled by adding [3H]palmitic acid (2.5 μCi/ml culture medium) for 24 hr. After removal of medium, cells were rinsed twice with PBS (pH 7.4), and total lipids were extracted as described (Lavie, Y. et al.,. (1996) J. Biol. Chem. 271, 19530-19536). The resulting organic lower phase was withdrawn and evaporated under a stream of nitrogen. Lipids were resuspended in 100 μl of chloroform/methanol (1:1, v/v), and aliquots were applied to TLC plates. Ceramide was resolved using a solvent system containing chloroform/acetic acid (90:10, v/v). Commercial lipid standards were co-chromatographed. After development, lipids were visualized by iodine vapor staining, and the ceramide area was scraped into 0.5 ml water. EcoLume counting fluid (4.5 ml) was added, the samples were mixed, and radioactivity was quantitated by liquid scintillation spectrometry.

MCF-7-AdrR/asGCS cells [6] = experiment: Analysis of ceramide in MCF-7-AdrR/asGCS cells
Description: as §3

| SMILES | decrease of EC50 in MCF-7-AdrR/asGCS vs MCF-7-AdrR cells (MCF-7-AdrR/asGCS cells [1]) | EC50 (MCF-7-AdrR/asGCS cells [1]) | EC50 (MCF-7-AdrR cells [2]; Homo sapiens, 72 h) | increase of caspase-3 activity over control (caspase-3 [3]; 24 hr) | increase of caspase-3 activity over control (caspase-3 [3]; 48 hr) | caspase-3 activity in GCS antisense-transfected cells vs parental cells (caspase-3 [3]; 24 hr) | caspase-3 activity in GCS antisense-transfected cells vs parental cells (caspase-3 [3]; 48 hr) | increase of caspase-3 activity (caspase-3 [4]) | increase of ceramide levels above control (MCF-7-AdrR cells [5]; adriamycin 2.5 μM) | ceramide level response (MCF-7-AdrR cells [5]; adriamycin 0.5-2.5 μM) | enhancement of ceramide levels (MCF-7-AdrR/asGCS cells [6]; adriamycin 0.5 μM, 48 hr) | enhancement of ceramide levels (MCF-7-AdrR/asGCS cells [6]; adriamycin 1.0 μM, 48 hr) | increase of ceramide levels (MCF-7-AdrR/asGCS cells [6]; adriamycin 2.5 μM, 24 hr) | increase of ceramide levels (MCF-7-AdrR/asGCS cells [6]; adriamycin 2.5 μM, 48 hr) | enhancement of ceramide levels (MCF-7-AdrR/asGCS cells [6]; adriamycin 2.5 μM, 48 hr (dose series)) | EC50 (MCF-7-AdrR cells [2]; hydrochloride) |
| --- | --- | --- | --- | --- | --- | --- | --- | --- | --- | --- | --- | --- | --- | --- | --- | --- |
| CCCCCCCCCCCCC/C=C/[C@@H](O)[C@H](CO)NC(=O)CCCCC [C6-ceramide, N-hexanoylsphingosine] | 2.4 fold | 4 ± 0.03 µM | 9.6 ± 0.5 µM |  |  |  |  |  |  |  |  |  |  |  |  |  |
| COc1cccc2c1C(=O)c1c(O)c3c(c(O)c1C2=O)C[C@@](O)(C(=O)CO)C[C@@H]3O[C@H]1C[C@H](N)[C@H](O)[C@H](C)O1 [adriamycin, doxorubicin hydrochloride] | 28 fold | 0.44 ± 0.01 µM | 12.4 ± 0.7 µM | 290% | 980% | 3 fold | 6 fold | 160% | 16% | minimal response | 181% | 188% | 200% | 250% | 246% | 10 µM |
